In patent publication US9216968B2, “Heterocyclic derivative and pharmaceutical drug” (NIPPON SHINYAKU CO., LTD., priority 2011, dated 2015) one finds IC50 data, which are given here for 23 compounds.

One may read the IC50 as the midpoint of a concentration-inhibition curve.

One experiment has as its system A549 cells. Nature of the experiment: Inhibition of PGE2 production in A549 cell (IL-1β stimulated). Type of experiment: cell-based, human. The following applies: IL-1β 5 ng/well, PGE2 in culture medium. The gist of the method:
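A549 cells preincubated 60 min with compound in RPMI/3% FBS (final DMSO 0.10), then stimulated with IL-1β (5 ng/well) for 24 h at 37 °C. PGE2 measured by HTRF and PGF2α by EIA in medium; IC50 from inhibition relative to stimulated minus unstimulated production.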

For the next experiment, the target named is human mPGES-1 (Homo sapiens (Human), UniProt O14684). Nature of the experiment: mPGES-1 inhibiting activity (microsome fractions, PGE2 by HTRF). Type of experiment: biochemical. Conditions: microsomes from CHO-K1 cells transfected with human mPGES-1; PGH2 1 μM, 4° C., 60 seconds; read-out: mPGES-1 Inhibition IC50. The gist of the method:
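PGE2 formation read by HTRF after 60 s at 4 °C with 1 μM PGH2 substrate, following 20 min compound preincubation (1% DMSO) with human mPGES-1 microsomes from transfected CHO-K1 cells. Buffer: potassium phosphate, reduced glutathione, pH 7.4; IC50 from activity relative to enzyme-free blank.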
Background: In TR-FRET formats the signal depends on donor and acceptor labels being close together.

Where a name gives a salt, the structure may show the parent alone.

Chain of human mPGES-1 (O14684 whole entry): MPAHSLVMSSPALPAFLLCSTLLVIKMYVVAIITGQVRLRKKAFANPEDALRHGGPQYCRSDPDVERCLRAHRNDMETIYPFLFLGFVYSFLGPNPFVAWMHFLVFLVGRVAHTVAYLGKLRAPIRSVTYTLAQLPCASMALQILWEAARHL

Consider `Cc1c(Cl)cccc1NC(=O)c1cc(NC(=O)c2ccccc2C(F)(F)F)cc2[nH]c(NCCN3CCOCC3)nc12` [Example 146, N-(3-Chloro-2-methylphenyl)-2-{[2-(morpholin-4-yl)ethyl]amino}-6-({[2-(trifluoromethyl)phenyl]carbonyl}amino)-1H-benzimidazole-4-carboxamide hydrochloride], for which the concentration for half-maximal inhibition (IC50) in the experiment with A549 cells (Homo sapiens, A549, 24 h) was 129 nM; at human mPGES-1, 3.1 nM.
For `COCc1nc2c(C(=O)Nc3cccc(Cl)c3C)cc(NC(=O)c3cc(Br)ccc3Cl)cc2[nH]1` [Example 106, 6-{[(5-Bromo-2-chlorophenyl)carbonyl]amino}-N-(3-chloro-2-methylphenyl)-2-(methoxymethyl)-1H-benzimidazole-4-carboxamide hydrochloride] the same measures were 63.8 nM and 4.5 nM.
In the same order, the values of `Cc1c(Cl)cccc1NC(=O)c1cc(NC(=O)c2cc(Cl)ccc2Cl)cc2[nH]c(C(C)(C)C)nc12` [Example 87, 2-tert-Butyl-N-(3-chloro-2-methylphenyl)-6-{[(2,5-dichlorophenyl)carbonyl]amino}-1H-benzimidazole-4-carboxamide hydrochloride] are 6.9 nM and 5.7 nM.
For `COC(C)(C)CNc1nc2c(C(=O)Nc3cccc(Cl)c3C)cc(NC(=O)c3c(F)cccc3Cl)cc2[nH]1` [Example 197, 6-{[(2-Chloro-6-fluorophenyl)carbonyl]amino}-N-(3-chloro-2-methylphenyl)-2-[(2-methoxy-2-methylpropyl)amino]-1H-benzimidazole-4-carboxamide hydrochloride] the same measures were 34.4 nM and 5.2 nM.
Take `COCc1nc2c(C(=O)NCC3CCCCCC3)cc(NC(=O)c3ccccc3C(F)(F)F)cc2[nH]1` [Example 231, N-(Cycloheptylmethyl)-2-(methoxymethyl)-6-({[2-(trifluoromethyl)phenyl]carbonyl}amino)-1H-benzimidazole-4-carboxamide hydrochloride]: the half-inhibitory concentration (IC50) with A549 cells (Homo sapiens, A549, 24 h) is 150 nM; at human mPGES-1, 1.9 nM.
In the case of `CCOCc1nc2c(C(=O)Nc3cccc(Cl)c3C)cc(NC(=O)c3ccccc3C(F)(F)F)cc2[nH]1` [Example 79, N-(3-Chloro-2-methylphenyl)-2-(ethoxymethyl)-6-({[2-(trifluoromethyl)phenyl]carbonyl}amino)-1H-benzimidazole-4-carboxamide hydrochloride], the IC50 in the experiment with A549 cells (Homo sapiens, A549, 24 h) was determined as 285 nM; at human mPGES-1 it was 15 nM.
In the same order, the values of `O=C(Nc1cc(C(=O)NC2CCCCC2)c2nc[nH]c2c1)c1ccccc1C(F)(F)F` [Example 2, N-Cyclohexyl-6-({[2-(trifluoromethyl)phenyl]carbonyl}amino)-1H-benzimidazole-4-carboxamide] are 240 nM and 7.6 nM.
In the same order, the values of `CC(C)Cc1nc2c(C(=O)NCc3ccccc3C(F)(F)F)cc(NC(=O)c3ccccc3C(F)(F)F)cc2[nH]1` [Example 60, 2-(2-Methylpropyl)-N-[2-(trifluoromethyl)benzyl]-6-({[2-(trifluoromethyl)phenyl]carbonyl}amino)-1H-benzimidazole-4-carboxamide hydrochloride] are 8 nM and 19.8 nM.
For `Cc1c(Cl)cccc1NC(=O)c1cc(NC(=O)c2ccccc2C(F)(F)F)cc2[nH]c(NCCO)nc12` [Example 137, N-(3-Chloro-2-methylphenyl)-2-[(2-hydroxyethyl)amino]-6-({[2-(trifluoromethyl)phenyl]carbonyl}amino)-1H-benzimidazole-4-carboxamide hydrochloride] the same measures were 1110 nM and 3.3 nM.
For the compound `COCc1nc2c(C(=O)Nc3cccc4c3CCCC4)cc(NC(=O)c3ccccc3C(F)(F)F)cc2[nH]1` [Example 34, 2-(Methoxymethyl)-N-(5,6,7,8-tetrahydronaphthalen-1-yl)-6-({[2-(trifluoromethyl)phenyl]carbonyl}amino)-1H-benzimidazole-4-carboxamide hydrochloride], the IC50 in the experiment on A549 cells (Homo sapiens, A549, 24 h) stood at 27.6 nM; at human mPGES-1, 4.9 nM.
For `Cc1c(Cl)cccc1NC(=O)c1cc(NC(=O)c2ccccc2C(F)(F)F)cc2[nH]c(S(C)(=O)=O)nc12` [Example 180, N-(3-Chloro-2-methylphenyl)-2-(methylsulfonyl)-6-({[2-(trifluoromethyl)phenyl]carbonyl}amino)-1H-benzimidazole-4-carboxamide] the same measures were 774 nM and 1.1 nM.
In the same order, the values of `Cc1c(Cl)cccc1NC(=O)c1cc(NC(=O)c2c(F)cccc2Cl)cc2[nH]c(NCCOC(C)(C)C)nc12` [Example 195, 2-[(2-tert-Butoxyethyl)amino]-6-{[(2-chloro-6-fluorophenyl)carbonyl]amino}-N-(3-chloro-2-methylphenyl)-1H-benzimidazole-4-carboxamide hydrochloride] are 17.2 nM and 2.3 nM.
As to `COC(C)(C)CNc1nc2c(C(=O)Nc3cccc(Cl)c3C)cc(NC(=O)c3cc(Cl)ccc3Cl)cc2[nH]1` [Example 192, N-(3-Chloro-2-methylphenyl)-6-{[(2,5-dichlorophenyl)carbonyl]amino}-2-[(2-methoxy-2-methylpropyl)amino]-1H-benzimidazole-4-carboxamide hydrochloride], the IC50 is 18.1 nM in the experiment with A549 cells (Homo sapiens, A549, 24 h) and 9.9 nM on human mPGES-1.
In the same order, the values of `Cc1c(Cl)cccc1NC(=O)c1cc(NC(=O)c2ccccc2C(F)(F)F)cc2[nH]c(NCCOC(C)(C)C)nc12` [Example 176, 2-[(2-tert-Butoxyethyl)amino]-N-(3-chloro-2-methylphenyl)-6-({[2-(trifluoromethyl)phenyl]carbonyl}amino)-1H-benzimidazole-4-carboxamide hydrochloride] are 138 nM and 0.3 nM.
In the same order, the values of `COCc1nc2c(C(=O)Nc3cccc(Cl)c3C)cc(NC(=O)c3ccccc3Cl)cc2[nH]1` [Example 95, N-(3-Chloro-2-methylphenyl)-6-{[(2-chlorophenyl)carbonyl]amino}-2-(methoxymethyl)-1H-benzimidazole-4-carboxamide hydrochloride] are 105 nM and 5.1 nM.
For `COCc1nc2c(C(=O)Nc3cccc(Cl)c3C)cc(NC(=O)c3c(Cl)cncc3Cl)cc2[nH]1` [Example 246, N-(3-Chloro-2-methylphenyl)-6-{[(3,5-dichloropyridin-4-yl)carbonyl]amino}-2-(methoxymethyl)-1H-benzimidazole-4-carboxamide hydrochloride] the same measures were 132 nM and 35.9 nM.
Regarding `Cc1c(Cl)cccc1NC(=O)c1cc(NC(=O)c2c(F)cccc2Cl)cc2[nH]c(NC[C@@H]3CCCO3)nc12` [Example 198, 6-{[(2-Chloro-6-fluorophenyl)-carbonyl]amino}-N-(3-chloro-2-methylphenyl)-2-{[(2S)-tetrahydrofuran-2-ylmethyl]amino}-1H-benzimidazole-4-carboxamide hydrochloride], the IC50 in the experiment on A549 cells (Homo sapiens, A549, 24 h) amounted to 34.1 nM; at human mPGES-1, 6 nM.
In the same order, the values of `CCOc1nc2c(C(=O)Nc3cccc(Cl)c3C)cc(NC(=O)c3ccccc3C(F)(F)F)cc2[nH]1` [Example 55, N-(3-Chloro-2-methylphenyl)-2-ethoxy-6-({[2-(trifluoromethyl)phenyl]carbonyl}amino)-1H-benzimidazole-4-carboxamide] are 64.3 nM and 2.7 nM.
For `CCCNC(=O)c1cc(NC(=O)c2ccccc2C(F)(F)F)cc2[nH]c(COC)nc12` [Example 215, 2-(Methoxymethyl)-N-propyl-6-({[2-(trifluoromethyl)phenyl]carbonyl}amino)-1H-benzimidazole-4-carboxamide hydrochloride] the same measures were 772 nM and 140 nM.
In the same order, the values of `Cc1nc2c(C(=O)NCc3ccccc3C(F)(F)F)cc(NC(=O)c3ccccc3C(F)(F)F)cc2[nH]1` [Example 12, 2-Methyl-N-[2-(trifluoromethyl)benzyl]-6-({[2-(trifluoromethyl)phenyl]carbonyl}amino)-1H-benzimidazole-4-carboxamide hydrochloride] are 41 nM and 7.1 nM.
For `COCc1nc2c(C(=O)Nc3cccc(Cl)c3C)cc(NC(=O)c3cccc(F)c3Cl)cc2[nH]1` [Example 100, 6-{[(2-Chloro-3-fluorophenyl)carbonyl]amino}-N-(3-chloro-2-methylphenyl)-2-(methoxymethyl)-1H-benzimidazole-4-carboxamide hydrochloride], the IC50 with A549 cells (Homo sapiens, A549, 24 h) amounted to 122 nM; on human mPGES-1 it was 33.3 nM.
As to `Cc1c(Cl)cccc1NC(=O)c1cc(NC(=O)c2ccccc2C(F)(F)F)cc2c1OCC2` [Example 8, N-(3-Chloro-2-methylphenyl)-5-({[2-(trifluoromethyl)phenyl]carbonyl}amino)-2,3-dihydro-1-benzofuran-7-carboxamide], the IC50 in the experiment with A549 cells (Homo sapiens, A549, 24 h) is 106 nM; at human mPGES-1, 160 nM.
As for `O=C(Nc1cc(C(=O)NCc2ccccc2C(F)(F)F)c2nc(C3CCCO3)[nH]c2c1)c1ccccc1C(F)(F)F` (stereo in doubt) [Example 67, 2-[(2S)-Tetrahydrofuran-2-yl]-N-[2-(trifluoromethyl)benzyl]-6-({[2-(trifluoromethyl)phenyl]carbonyl}amino)-1H-benzimidazole-4-carboxamide hydrochloride], the half-maximal inhibitory concentration (IC50) with A549 cells (24 hours, hydrochloride) came out at 56.4 nM; at human mPGES-1 it was 11 nM.
